# Test results from patent US20220204540A1, “ESTERS OF NON- AROMATIC HETEROCYCLIC COMPOUNDS HAVING A NEMATOCIDAL ACTIVITY, THEIR AGRONOMIC COMPOSITIONS AND USE THEREOF” (ISAGRO S.p.A., priority 2019, published 2022).
# System: Meloidogyne sp.
# Experiment: Nematocidal activity against Meloidogyne sp. on potted cucumber/tomato plants in greenhouse (soil treatment)
# Type: in vivo
# Conditions: for GALL INDEX (scale 0-10) / FRESH WEIGHT OF PLANT: cucumber cv Chinese Long; for GALL INDEX (scale 0-10): dose applied 2 kg/hectare (2000 g/hectare), survey 30 days after transplantation, Bridge-Page scale, 0 = 0% of root affected, 10 = 100% infested root; for FRESH WEIGHT OF PLANT: dose applied 2 kg/hectare, healthy blank 23 g, infested blank 3.5 g; for FRESH WEIGHT OF PLANT / effectiveness with respect to the reference products (CR1, CR2), in words: 30 days after transplantation; for effectiveness with respect to the reference products (CR1, CR2), in words: Table 6, cucumber, 2 kg/hectare
# Experimental: sDetermination of the Nematocidal Activity Against Meloidogyne sp.
# The tests aimed at testing the nematicidal activity of the product under examination were carried out using inoculae taken from a farming of Meloidogyne sp. maintained on potted tomato and cucumber plants and grown in greenhouses.
# To carry out the experiments, portions of roots having a good number of galls and soil were taken from the infested pots, in which larvae were present starting from the second stage of age.
# New pots having a diameter of 15 cm were half filled with sterile soil. The portions of infested roots, previously cleaned, were placed on the same in order to be able to correctly assess the degree of infestation and ensure that each pot contains the same nematic charge. 200-300 g of infested soil were subsequently added, then covered with a thin layer of sterile soil.
# The treatment was carried out by pouring 100 ml of solution on the surface of the soil, in which the product to be tested was dissolved.
# Tomato or cucumber seedlings at the stage of two or three true leaves were transplanted in the pots thus prepared, one or seven days after application. Different cultivars of tomato or cucumber were used, having a different sensitivity to the parasite and different growth times. In particular, a variety of ornamental tomatoes (cv Microtom), whose seedlings are small in size and are able to reach the ripeness of the fruit in pots and under greenhouse conditions in about two months, was used for assessing the final production.
# The containment capacity of the parasite was detected, 30 and 60 days after transplantation, considering the development of the root system (where 100% is the development reached by the healthy comparative root), the fresh weight of the plants treated expressed in grams, and the presence of galls on the roots. The latter was estimated using the infestation scale proposed by Bridge-Page, according to which the value zero corresponds to 0% of the root affected and the value 10 corresponds to 100% of infested root.
# Table 6 indicates the results relating to the effectiveness on cucumbers, cv Chinese Long, treating with Compounds Nr. 23, 620, 1, 13, 5, 15, 16, 624 and 625 included in general formula (I) and the reference compounds CR1=Fluensulfone and CR2, described in JP 2000038379, instead of the compound having general formula (I), at a dose of 2000 g/hectare and effecting the survey 30 days after transplantation.
Compound,GALL INDEX (scale 0-10),FRESH WEIGHT OF PLANT,"effectiveness with respect to the reference products (CR1, CR2), in words"
"O=S(=O)(CCC(F)=C(F)F)c1ncc(Cl)s1 [CR1, 5-chloro-2-(3,4,4-trifluoro-3-butenylsulfonyl)-thiazole, reference compound]",2,5.5 g,–
"O=C(OCCC(F)=C(F)F)c1cccnc1 [CR2, pyridyl-3-carboxylate of 3,4,4-trifluoro-3-butenyl, reference compound]",2.9,17.5 g,–
"CC(=O)N1C(C(=O)OCCC(F)=C(F)F)COC1(C)C(F)(F)F (stereo not shown) [Compound 16, (N-acetyl-2-trifluoromethyl-2-methyl)-1,3-oxazolidine-4-carboxylate of 3,4,4-trifluoro-3-butenyl]",2.9,18 g,comparable or greater effectiveness
"CC(=O)N1CCC[C@H]1C(=O)OCCC(F)=C(F)F [Compound 624, N-acetyl-L-proline 3,4,4-trifluorobut-3-en-1-yl ester]",1.5,21 g,comparable or greater effectiveness
"O=C(OCCC(F)=C(F)F)[C@@H]1CCCN1C(=O)C(F)(F)F [Compound 625, N-trifluoroacetyl-L-proline 3,4,4-triflluorobut-3-en-1-yl ester]",2.5,22 g,comparable or greater effectiveness
"N-acetyl-1,3-thiadiazolidine-4-carboxylate of 3,4,4-trifluoro-3-butenyl [Compound 23]",2,23 g,comparable or greater effectiveness
